Experimental data published in patent publication US10450263B2, “Benzo annulenes as antiviral agents” (Southern Research Institute, priority 2017, dated 2019).
Where two headings read alike, the source gives them in different places.

Tests used:
Chikungunya virus = assay: Evaluation of antiviral activity against Chikungunya virus (EC90); assay type: cell-based
Source text: EC90 refers to the concentration of the compound that is required for 90% antagonism or inhibition of CHIKV. EC90 also refers to the concentration of a substance that is required for 90% antagonism or inhibition of CHIKV in vivo.
(§1) The compounds below in Table 1 were synthesized with methods identical or analogous to those described herein. The requisite starting materials were commercially available, described in the literature, or readily synthesized by one skilled in the art of organic synthesis.

[1] = CC50 reported alongside the CHIKV antiviral assay (cytotoxicity); assay type: cell-based; settings: cell line not given
Source text: as §1

[2] = Chikungunya virus, read-out: EC90 (μM) CHIKV, concentration required for 90% inhibition of CHIKV

Compound | EC90 (Chikungunya virus; [2]) | CC50 [1] | EC90 (Chikungunya virus; read-out: EC90 (μM) CHIKV, concentration required for 90% inhibition of CHIKV)
CCn1nc(C(=O)Nc2ccc3c(c2)CCCCC3)cc1C [Compound 26, 1-ethyl-5-methyl-N-(6,7,8,9-tetrahydro-5H-benzo[7]annulen-2-yl)-1H-pyrazole-3-carboxamide] | > 30 µM | > 30 µM | –
COc1cc2c(cc1NC(=O)c1ccc(C(F)(F)F)cc1)CCCCC2 [Compound 74, N-(3-methoxy-6,7,8,9-tetrahydro-5H-benzo[7]annulen-2-yl)-4-(trifluoromethyl)benzamide] | 7.4 µM | > 30 µM | –
COc1cc2c(cc1NC(=O)c1ccc(C(=O)O)cc1)CCCCC2 [Compound 55] | > 10 µM | > 30 µM | –
COc1cc2c(cc1NC(=O)c1cc(C(C)(C)C)c(O)c(C(C)(C)C)c1)CCCCC2 [Compound 70, 3,5-Di-tert-butyl-4-hydroxy-N-(3-methoxy-6,7,8,9-tetrahydro-5H-benzo[7]annulen-2-yl)benzamide] | 44.8 µM | > 30 µM | –
COCCOc1cc2c(cc1NC(=O)c1ccc(C(C)(C)C)cc1)CCCCC2 [Compound 21, 4-(tert-Butyl)-N-(3-(2-methoxyethoxy)-6,7,8,9-tetrahydro-5H-benzo[7]annulen-2-yl)benzamide] | > 30 µM | > 30 µM | –
CC(C)(C)c1ccc(C(=O)Nc2cc3c(cc2N)CCCCC3)cc1 [Compound 20, N-(3-amino-6,7,8,9-tetrahydro-5H-benzo[7]annulen-2-yl)-4-(tert-butyl)benzamide] | > 30 µM | > 30 µM | –
COc1cc2c(cc1NC(=O)c1ccccc1)CCCCC2 [Compound 83, N-(3-methoxy-6,7,8,9-tetrahydro-5H-benzo[7]annulen-2-yl)benzamide] | > 10 µM | > 30 µM | –
CCCOc1cc2c(cc1NC(=O)c1ccc(C(C)(C)C)cc1)CCCCC2 [Compound 86, 4-(tert-Butyl)-N-(3-propoxy-6,7,8,9-tetrahydro-5H-benzo[7]annulen-2-yl)benzamide] | 7 µM | > 30 µM | –
COc1cc2c(cc1NC(=O)c1ccc(C(C)(C)CO)cc1)CCCCC2 [Compound 47] | 7.1 µM | 96.3 µM | –
COc1cc2c(cc1NC(=O)c1cc(C)n(C(C)(C)C)n1)CCCCC2 [Compound 61] | 5.64 µM | > 30 µM | –
COc1cc2c(cc1NC(=O)c1ccc(OC(F)(F)F)cc1)CCCCC2 [Compound 72, N-(3-Methoxy-6,7,8,9-tetrahydro-5H-benzo[7]annulen-2-yl)-4-(trifluoromethoxy)benzamide] | 3.3 µM | > 30 µM | –
COc1cc2c(cc1NC(=O)c1cnc(C(C)(C)C)s1)CCCCC2 [Compound 44, 2-(tert-Butyl)-N-(3-methoxy-6,7,8,9-tetrahydro-5H-benzo[7]annulen-2-yl)thiazole-5-carboxamide] | 1.2 µM | > 30 µM | –
CC(=O)Oc1cc2c(cc1NC(=O)c1ccc(C(C)(C)C)cc1)CCCCC2 [Compound 16, 3-(4-(tert-Butyl)benzamido)-6,7,8,9-tetrahydro-5H-benzo[7]annulen-2-yl acetate] | 2.8 µM | > 30 µM | –
COc1cc2c(cc1NC(=O)c1ccc(C(C)(C)C)cc1)CCCCN2 [Compound 64, 4-(tert-butyl)-N-(8-methoxy-2,3,4,5-tetrahydro-1H-benzo[b]azepin-7-yl)benzamide] | 3.3 µM | > 30 µM | –
COc1cc2c(cc1NC(=O)c1ccc(C3CC3)cc1)CCCCC2 [Compound 80, 4-Cyclopropyl-N-(3-methoxy-6,7,8,9-tetrahydro-5H-benzo[7]annulen-2-yl)benzamide] | 12.3 µM | > 30 µM | –
CCn1cc(C(=O)Nc2cc3c(cc2OC)CCCCC3)c(C(F)(F)F)n1 [Compound 45, 1-Ethyl-N-(3-methoxy-6,7,8,9-tetrahydro-5H-benzo[7]annulen-2-yl)-3-(trifluoromethyl)-1H-pyrazole-4-carboxamide] | 2.95 µM | 34.5 µM | –
COc1cc2c(cc1NC(=O)c1cnc(C)cn1)CCCCC2 [Compound 39, N-(3-Methoxy-6,7,8,9-tetrahydro-5H-benzo[7]annulen-2-yl)-5-methylpyrazine-2-carboxamide] | – | > 30 µM | > 30 µM
COc1cc2c(cc1NC(=O)c1ccc(C(C)(C)C)o1)CCCCC2 [Compound 37, 5-(tert-Butyl)-N-(3-methoxy-6,7,8,9-tetrahydro-5H-benzo[7]annulen-2-yl)furan-2-carboxamide] | 23.2 µM | > 30 µM | –

Compound | EC90 (Chikungunya virus; [2]) | CC50 [1] | EC90 (Chikungunya virus; read-out: EC90 (μM) CHIKV, concentration required for 90% inhibition of CHIKV)
COc1cc2c(cc1NC(=O)c1ccc(C(C)(C)C)cc1)CCCCN2C [Compound 65, 4-(tert-butyl)-N-(8-methoxy-1-methyl-2,3,4,5-tetrahydro-1H-benzo[b]azepin-7-yl)benzamide] | > 30 µM | > 30 µM | –
COc1cc2c(cc1NC(=O)c1ccc(C(C)(C)C)cc1)CCCC(=O)N2C(C)C [Compound 63, 4-(tert-butyl)-N-(1-isopropyl-8-methoxy-2-oxo-2,3,4,5-tetrahydro-1H-benzo[b]azepin-7-yl)benzamide] | > 30 µM | > 30 µM | –
COc1cc2c(cc1NC(=O)c1cn(C)cn1)CCCCC2 [Compound 32, N-(3-methoxy-6,7,8,9-tetrahydro-5H-benzo[7]annulen-2-yl)-1-methyl-1H-imidazole-4-carboxamide] | 55.6 µM | > 30 µM | –
CC(C)(C)c1ccc(C(=O)Nc2cc3c(cc2OCc2ccccn2)CCCCC3)cc1 [Compound 85, 4-(tert-Butyl)-N-(3-(pyridin-2-ylmethoxy)-6,7,8,9-tetrahydro-5H-benzo[7]annulen-2-yl)benzamide] | > 10 µM | 9.4 µM | –
CCn1nc(C(=O)Nc2cc3c(cc2OC)CCCCC3)cc1C [Compound 31, 1-Ethyl-N-(3-methoxy-6,7,8,9-tetrahydro-5H-benzo[7]annulen-2-yl)-5-methyl-1H-pyrazole-3-carboxamide] | 0.79 µM | > 30 µM | –
COc1cc2c(cc1NC(=O)c1cc(-c3ccccc3)on1)CCCCC2 [Compound 36, N-(3-methoxy-6,7,8,9-tetrahydro-5H-benzo[7]annulen-2-yl)-5-phenylisoxazole-3-carboxamide] | 9 µM | > 30 µM | –
COc1c(NC(=O)c2cnc(C(C)(C)C)s2)cc2c(c1F)CCCCC2 [Compound 24, 2-(tert-Butyl)-N-(4-fluoro-3-methoxy-6,7,8,9-tetrahydro-5H-benzo[7]annulen-2-yl)thiazole-5-carboxamide] | > 10 µM | > 30 µM | –
COc1cc2c(cc1NC(=O)c1oc3ccccc3c1C)CCCCC2 [Compound 79, N-(3-methoxy-6,7,8,9-tetrahydro-5H-benzo[7]annulen-2-yl)-3-methylbenzofuran-2-carboxamide] | > 10 µM | > 30 µM | –
CC(C)(C)n1nc(C(=O)Nc2ccc3c(c2)CCCCC3)cc1C(F)(F)F [Compound 27, 1-(tert-butyl)-N-(6,7,8,9-tetrahydro-5H-benzo[7]annulen-2-yl)-5-(trifluoromethyl)-1H-pyrazole-3-carboxamide] | > 10 µM | > 30 µM | –
COc1c(NC(=O)c2ccc(C(C)(C)C)cc2)cc2c(c1F)CCCCC2 [Compound 23, 4-(tert-butyl)-N-(4-fluoro-3-methoxy-6,7,8,9-tetrahydro-5H-benzo[7]annulen-2-yl)benzamide] | 12.5 µM | > 30 µM | –
CCOc1cc2c(cc1NC(=O)c1ccc(C(C)(C)C)cc1)CCCCC2 [Compound 84, 4-(tert-Butyl)-N-(3-ethoxy-6,7,8,9-tetrahydro-5H-benzo[7]annulen-2-yl)benzamide] | 5.19 µM | 10 µM | –
COc1cc2c(cc1NC(=O)C13C[C@H]4C[C@@H](C1)C[C@@H](C3)C4)CCCCC2 [Compound 42, (3r,5r,7r)-N-(3-methoxy-6,7,8,9-tetrahydro-5H-benzo[7]annulen-2-yl)adamantane-1-carboxamide] | 12.1 µM | > 30 µM | –
COc1cc2c(cc1NC(=O)c1ccc(N(C)C)cc1)CCCCC2 [Compound 76, 4-(Dimethylamino)-N-(3-methoxy-6,7,8,9-tetrahydro-5H-benzo[7]annulen-2-yl)benzamide] | > 10 µM | > 30 µM | –
CC(C)(C)c1ccc(C(=O)Nc2cc3c(cc2[N+](=O)[O-])CCCCC3)cc1 [Compound 22, 4-(tert-butyl)-N-(3-nitro-6,7,8,9-tetrahydro-5H-benzo[7]annulen-2-yl)benzamide] | > 30 µM | > 30 µM | –
COc1cc2c(cc1NC(=O)c1cnc(C(C)(C)C)nc1)CCCCC2 [Compound 49, 2-(tert-Butyl)-N-(3-methoxy-6,7,8,9-tetrahydro-5H-benzo[7]annulen-2-yl)pyrimidine-5-carboxamide] | 2.99 µM | 37.6 µM | –
COc1cc2c(cc1N1Cc3ccc(C(C)(C)C)cc3C1=O)CCCCC2 [Compound 59, 6-(tert-Butyl)-2-(3-methoxy-6,7,8,9-tetrahydro-5H-benzo[7]annulen-2-yl)isoindolin-1-ONE] | > 10 µM | > 30 µM | –
COc1cc2c(cc1NC(=O)c1ccc(C(C)(C)C(F)(F)F)cc1)CCCCC2 [Compound 52, N-(3-methoxy-6,7,8,9-tetrahydro-5H-benzo[7]annulen-2-yl)-4-(1,1,1-trifluoro-2-methylpropan-2-yl)benzamide] | 3.47 µM | 19.1 µM | –
